Like-named read-outs stand apart in the source and are kept apart here.
Experiments:
GPR120 = target: T1, GPR120 (Homo sapiens, UniProt Q5NUL3); assay: BRET β-arrestin-2 recruitment to GPR120-GFP10 in HEK293 cells; assay type: cell-based; settings: Rluc8-β-arrestin-2 / GPR120-GFP10
T1 construct: expressed in transfected cells; host or cells: HEK293
T1 sequence (Q5NUL3 1-361): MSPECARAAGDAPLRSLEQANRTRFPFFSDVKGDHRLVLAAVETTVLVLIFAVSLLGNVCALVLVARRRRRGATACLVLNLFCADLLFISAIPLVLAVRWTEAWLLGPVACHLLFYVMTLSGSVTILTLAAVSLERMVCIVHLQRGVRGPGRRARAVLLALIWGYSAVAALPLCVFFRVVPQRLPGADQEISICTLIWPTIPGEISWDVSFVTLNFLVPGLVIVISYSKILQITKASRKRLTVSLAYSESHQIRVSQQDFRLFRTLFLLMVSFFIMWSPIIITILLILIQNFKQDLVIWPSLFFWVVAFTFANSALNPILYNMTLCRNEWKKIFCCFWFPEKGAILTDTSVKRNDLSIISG
Protocol: (§1) Figure 1 PBI-4547 binding and activity on GPR84, GPR40, GPR120, and PPAR receptors. (A) Chemical structure of PBI-4547. (B) Gi pathway activation was monitored in HEK293 cells transfected with GPR84 and the Gαi2 activation biosensor. Cells were co-treated with […] sodium decanoate and increasing concentrations of PBI-4547, and BRET variation compared with vehicle was measured. (C) β-arrestin 2 recruitment to activated GPR120 receptor was monitored in HEK293 cells transfected with RLuc8-β-arrestin 2 and GPR120-GFP10. (D) Cells transfected with GPR40 and Gαq or Gαi2 activation biosensor were exposed to increasing concentrations of PBI-4547 or to 500 µM of sodium decanoate, and BRET variation compared with vehicle was measured. Cells were exposed to increasing concentrations of PBI-4547 or to 100 µM of GW9508, and BRET variation compared with vehicle was measured. […] Data in (B–D) are expressed as means ± SEM of 4–5 experiments; data in (E,F) are from a representative experiment from a total of 3 to 4 independent experiments. […]
(§2) BRET measurements in transiently transfected HEK293 cells were performed as previously described. Ligands were incubated with cells at room temperature for 10 min (G protein biosensors) or 25 min (β-arrestin/GPR120) before collecting BRET[2] readings between Rluc8 and GFP10.

HepG2 hepatocytes = assay: 14C-palmitate β-oxidation rate in HepG2 hepatocytes; assay type: cell-based
Protocol: Moreover, hepatic expression of several genes involved in glucose metabolism including Pklr (pyruvate kinase L/R), G6pc (glucose-6-phosphatase, catalytic) and Slc2a2 (Glut2) was normalized by PBI-4547 (Fig. 4B). […] To test this hypothesis, mitochondrial respiration in HepG2 hepatocytes was measured (Fig. 4C). […] However, it did decrease maximal respiration and ATP production, in agreement with the metabolomics results.
Figure 4 Effects of PBI-4547 on glucose and FA metabolism in liver. (A) Relative gene expression levels of glucose and FA-related metabolism in liver from STD, HFD and HFD + PBI-4547 mice. Data are presented as geometric mean ± SEM (n ≥ 6 per group, one-way ANOVA with Dunnett’s multicomparison test vs HFD group). (B) 1H-NMR metabolic profiling in liver tissues. (C) Oxygen Consumption Rate (OCR) and Extracellular Acidifcation Rate (ECAR) in HepG2 hepatocytes. Measurements of basal respiration, maximal respiration, ATP production and proton leak in HepG2 hepatocytes treated or not with PBI-4547. (D) Oxidation rate of ^14C-palmitate in HepG2 hepatocytes treated or not with PBI-4547. Data are presented as mean ± SEM (n = 3, Student t test Ctrl vs PBI-4547). See also Fig. S2.

CCl4 mouse = assay: Carbon tetrachloride (CCl4)-induced liver fibrosis; assay type: in vivo
From the text: Since fibrosis contributes directly to the progression from NAFLD to NASH, we next evaluated the effect of PBI-4547 pro-fibrotic gene expression. […] Pro-inflammatory genes were not modulated by treatment with PBI-4547. […] As liver fibrosis was relatively mild in HFD-fed mice, we performed separate studies to evaluate the antifibrotic effect of PBI-4547, in rodent models of carbon tetrachloride (CCl4)- and bile duct ligation (BDL)-induced liver fibrosis.

GPR40 = target: T2, GPR40 (Homo sapiens, UniProt O14842); assay: BRET Gαq / Gαi2 activation biosensors in HEK293 cells transfected with GPR40; assay type: cell-based
T2 construct: expressed in transfected cells; host or cells: HEK293
T2 sequence (O14842 whole entry, species assumed): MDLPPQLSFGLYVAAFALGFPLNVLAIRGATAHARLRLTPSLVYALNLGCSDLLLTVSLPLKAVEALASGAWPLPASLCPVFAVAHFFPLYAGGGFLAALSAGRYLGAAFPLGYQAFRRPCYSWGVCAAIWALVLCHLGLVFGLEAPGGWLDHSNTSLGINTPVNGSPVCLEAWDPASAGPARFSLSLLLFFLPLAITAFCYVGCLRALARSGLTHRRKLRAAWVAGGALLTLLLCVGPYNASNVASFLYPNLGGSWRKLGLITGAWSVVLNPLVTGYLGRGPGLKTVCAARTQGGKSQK
Protocol: as §1, §2

Compound: CCCCCc1cc(CCCCC)cc(CC(=O)[O-])c1.[Na+] [PBI-4547, 2-[3,5-dipentylphenyl]acetate sodium salt]
- EC50 (GPR120): 48 µM
- oxidation of 14C-palmitate (β-oxidation rate) (HepG2 hepatocytes): dose-dependently increased
- liver collagen deposition (CCl4 mouse): significantly decreased
- EC50 (GPR40; Gαi2 biosensor, read-out: EC50, GPR40 Gαi2 biosensor BRET signal decrease): 27 µM
- EC50 (GPR40; Gαq biosensor, read-out: EC50, GPR40 Gαq biosensor BRET signal decrease): 30 µM
